Results published in the supplement of paper PMC11061612.

Assays:
Experiment in all cases: Bliss excess, mean over the matrix (fraction); higher = more synergy
[1] = test system: HCC-827 (Lung Adenocarcinoma)
Procedure, shortened: (§1)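 Cell lines in DMEM/F12 or RPMI with 10% FBS were plated in 1536-well plates, held 24 hours at 37°C, 5% CO2, then given two-drug dose matrices for 72 hours (DMSO typically 0.2%). Viability was read by CellTiter-Glo 2.0 luminescence and scaled as inhibition from 0 (vehicle wells) to 1 (blank wells). Combination Emax is the second-highest inhibition in the matrix; Bliss excess is observed combination effect minus expected EA + EB − EA·EB, EA and EB being single-agent effects.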

[2] = test system: HOP-92 (Non-Small Cell Lung Carcinoma)
Procedure, shortened: as §1

[3] = test system: MEG-01 (Chronic Myelogenous Leukemia)
Procedure, shortened: as §1

[4] = test system: SLVL (B-Cell Non-Hodgkin's Lymphoma)
Procedure, shortened: as §1

[5] = test system: JHH-6 (Hepatocellular Carcinoma)
Procedure, shortened: as §1

[6] = test system: P31-FUJ (Acute Myeloid Leukemia)
Procedure, shortened: as §1

[7] = test system: SNG-M (Endometrial Carcinoma)
Procedure, shortened: as §1

[8] = test system: TYK-nu (Ovarian Carcinoma)
Procedure, shortened: as §1

[9] = test system: BICR78 (Oral Cavity Carcinoma)
Procedure, shortened: as §1

A172 (Glioblastoma) = test system: A172 (Glioblastoma)
Procedure, shortened: as §1

[10] = test system: WSU-DLCL2 (B-Cell Non-Hodgkin's Lymphoma)
Procedure, shortened: as §1

CS1 (Chondrosarcoma) = test system: CS1 (Chondrosarcoma)
Procedure, shortened: as §1

H4 (Low Grade Glioma) = test system: H4 (Low Grade Glioma)
Procedure, shortened: as §1

MSTO-211H (Mesothelioma) = test system: MSTO-211H (Mesothelioma)
Procedure, shortened: as §1

[11] = test system: HCT-116 (Colorectal Carcinoma)
Procedure, shortened: as §1

[12] = test system: EFM-192A (Breast Carcinoma)
Procedure, shortened: as §1

[13] = test system: 647-V (Bladder Carcinoma)
Procedure, shortened: as §1

[14] = test system: SK-UT-1 (Other Solid Carcinomas)
Procedure, shortened: as §1

[15] = test system: SNU-61 (Colorectal Carcinoma)
Procedure, shortened: as §1

[16] = test system: EKVX (Non-Small Cell Lung Carcinoma)
Procedure, shortened: as §1

Row | SMILES | Bliss excess [1] | Bliss excess [2] | Bliss excess [3] | Bliss excess [4] | Bliss excess [5] | Bliss excess [6] | Bliss excess [7] | Bliss excess [8] | Bliss excess [9] | Bliss excess (A172 (Glioblastoma)) | Bliss excess [10] | Bliss excess (CS1 (Chondrosarcoma)) | Bliss excess (H4 (Low Grade Glioma)) | Bliss excess (MSTO-211H (Mesothelioma)) | Bliss excess [11] | Bliss excess [12] | Bliss excess [13] | Bliss excess [14] | Bliss excess [15] | Bliss excess [16]
1 | CC1(C)CCC(CN2CCN(c3ccc(C(=O)NS(=O)(=O)c4ccc(NCC5CCOCC5)c([N+](=O)[O-])c4)c(Oc4cnc5[nH]ccc5c4)c3)CC2)=C(c2ccc(Cl)cc2)C1 [Venetoclax] + C[C@@H]1COCCN1C2=NC(=NC(=C2)C3(CC3)[S@](=N)(=O)C)C4=C5C=CNC5=NC=C4 [AZD6738] (first compound max 1 µM, 7x7, partner max 10 µM) | -0.0418 | -0.0427 | -0.0256 | -0.0162 | -0.03 | 0.0498 | -0.0296 | -0.0315 | -0.0397 | -0.0141 | 0.0423 | 0.0039 | -0.0301 | -0.0344 | -0.0703 | -0.0377 | -0.0317 | -0.0299 | 0.0295 | -0.054
2 | CC1(C)CCC(CN2CCN(c3ccc(C(=O)NS(=O)(=O)c4ccc(NCC5CCOCC5)c([N+](=O)[O-])c4)c(Oc4cnc5[nH]ccc5c4)c3)CC2)=C(c2ccc(Cl)cc2)C1 [Venetoclax] + C[C@@H](Nc1cc(F)cc(F)c1)c1cc(C(=O)N(C)C)cc2c(=O)cc(N3CCOCC3)oc12 [AZD8186] (first compound max 1 µM, 7x7, partner max 3 µM) | -0.0146 | -0.0212 | -0.0492 | 0.0395 | -0.0135 | 0.0178 | -0.0551 | -0.0103 | -0.0423 | -0.0414 | 0.0951 | -0.0923 | -0.0302 | -0.0052 | -0.0421 | -0.0501 | -0.0019 | -0.0141 | -0.0314 | 0.0566
3 | CC1(C)CCC(CN2CCN(c3ccc(C(=O)NS(=O)(=O)c4ccc(NCC5CCOCC5)c([N+](=O)[O-])c4)c(Oc4cnc5[nH]ccc5c4)c3)CC2)=C(c2ccc(Cl)cc2)C1 [Venetoclax] + Cc1cc2ncnn2cc1Nc1ncc2c(n1)n(C1CCOCC1)c(=O)n2C [AZD7648] (first compound max 1 µM, 7x7, partner max 10 µM) | 0.0085 | -0.0194 | -0.0249 | 0.0013 | -0.0302 | -0.015 | -0.0516 | -0.0074 | -0.0493 | -0.0385 | 0.0706 | -0.0949 | -0.0541 | -0.0564 | 0.0048 | -0.0046 | 0.0316 | -0.0119 | 0.0023 | -0.0788
4 | CC1(C)CCC(CN2CCN(c3ccc(C(=O)NS(=O)(=O)c4ccc(NCC5CCOCC5)c([N+](=O)[O-])c4)c(Oc4cnc5[nH]ccc5c4)c3)CC2)=C(c2ccc(Cl)cc2)C1 [Venetoclax] + Cn1cnc2c(F)c(Nc3ccc(Br)cc3Cl)c(C(=O)NOCCO)cc21 [Selumetinib] (first compound max 1 µM, 7x7, partner max 3 µM) | -0.0212 | -0.0338 | -0.0242 | 0.0299 | -0.0252 | -0.0968 | -0.0282 | -0.0594 | -0.0354 | -0.0176 | 0.0196 | -0.0498 | 0.006 | -0.0393 | -0.0255 | -0.0245 | -0.0064 | 0.0043 | 0.0136 | -0.0732
